Results as given in US12116353B1, “Crystalline chloro-n-(4-(morpholinomethyl)phenyl)benzamide and crystalline hydrochloride salt” (GEN1E LIFESCIENCES INC., priority 2024, dated 2024).
Values after ≈ are worked out from the molar mass of the structure shown.

Assay: Equilibrium solubility in aqueous buffers
Format: physicochemical
Conditions: thermodynamic from solid, LC-MS/MS
Description: The equilibrium solubility of crystalline compound (1) and crystalline compound (2) was measured in various aqueous buffers. The pH 4.0 and pH 5.0 buffers were prepared by combining 50 mL of 0.2 M potassium biphthalate with 150 mL of H2O, and then adjusting to pH 4.0 or pH 5.0 with 10 N HCl. The pH 6.0 buffer was prepared by combining 50 mL of 0.2 M KH2PO4 with 150 mL of H2O, and then adjusting to pH 6.0 with 10 N NaOH. The pH 7.4 buffer was prepared by combining 50 mL of 0.2 M KH2PO4 with 150 mL of H2O, and then adjusting to pH 7.4 with 10 N NaOH. At least 1 mg of powder for each compound was combined with 1 mL of each buffer to make a saturated mixture. The samples were shaken overnight on a Thermomixer® at room temperature. The samples were then passed through a […] PTFE syringe filter. The filtrate was sampled and diluted in duplicate as appropriate into a mixture of 1:1 buffer:acetonitrile (ACN) prior to analysis. All samples were assayed by LC-MS/MS using electrospray ionization against standards prepared in a mixture of 1:1 assay buffer:ACN. Standard concentrations ranged from 1.0 μM to 0.3 nM. The samples were analyzed by LCMS using a Waters Acuity® UPLC BEH Phenyl 30×2.1 mm, 1.7 μm liquid chromatography column and a PE Sciex® API 4000 mass spectrometer equipped with a Turbo Ionspray.

| Compound | solubility (aqueous potassium biphthalate buffer, aqueous buffer pH 4.0, shaken overnight at room temperature) | solubility (aqueous potassium biphthalate buffer, aqueous buffer pH 5.0, shaken overnight at room temperature) | solubility (aqueous potassium phosphate (KH2PO4) buffer, aqueous buffer pH 6.0, shaken overnight at room temperature) | solubility (aqueous potassium phosphate (KH2PO4) buffer, aqueous buffer pH 7.4, shaken overnight at room temperature) |
| --- | --- | --- | --- | --- |
| Cl.O=C(Nc1ccc(CN2CCOCC2)cc1)c1ccc(Cl)cc1 [Crystalline Compound (1), 4-chloro-N-(4-(morpholinomethyl)phenyl)benzamide hydrochloride] | 12.5 mM | 10.2 mM | 8.17 mM |  |
| O=C(Nc1ccc(CN2CCOCC2)cc1)c1ccc(Cl)cc1 [Crystalline Compound (2), 4-chloro-N-(4-(morpholinomethyl)phenyl)benzamide] |  |  |  | 0.0125 mM (≈ 4.14 µg/mL) |
